Assay results taken from patent US20240059729A1, “MULTIFUNCTIONAL CYCLIC DINUCLEOTIDE AND USE THEREOF” (TYLIGAND BIOSCIENCE (SHANGHAI) LIMITED, priority 2020, published 2024).
Counter-ions that a name gives are not always drawn.

Legend:
[1] = system: CT26 cells; test: Inhibition of proliferation of CT26 cells (CellTiter-Glo); type: cell-based, mouse; settings: for IC50: 120 hours, CellTiter-Glo
Description: CT26 cell is a mouse colorectal cancer cell line. This assay used the CellTiter-Glo Luminescence Cell Vitality Assay kit from Promega to evaluate the inhibitory activity of the compounds on the proliferation of CT26 cells.
In thawing the CT26 cells (ATCC #CRL-2638), a cell freezing tube was quickly shaken in a water bath at 37° C. to thaw the cells within 1 min. The thawed cell suspension was taken and evenly mixed with DMEM medium (GE, Cat #SH30243.01) containing 10% FBS (GIBCO, Cat #10099-141), centrifuged for 5 min at 1000 rpm, and the supernatant was discarded. The cell pellet was resuspended in 5 mL of the complete medium (DMEM medium containing 10% FBS), placed into a cell culture flask with a bottom area of 25 cm^2, and incubated in a cell incubator at 37° C., 5% CO2 and 95% humidity. When the cell confluence reached 70%˜80%, the cells were passaged. All the cells in the culture flask were transferred to a 15 mL centrifuge tube, centrifuged for 5 min at 1000 rpm, and the supernatant was discarded. 5 mL of fresh complete medium was added to re-suspend the cell pellet, 1 mL of which was taken to place in a cell culture flask with a bottom area of 25 cm^2, supplemented with 4 mL of fresh complete medium for further incubation. When the cell confluence reached 70%-80% again, plating was conducted following the procedure of cell passage, retaining 1/5 cell suspension for further inculation and remaining 4/5 of the cell suspension in a 15 mL centrifuge tube.
The cell suspension was centrifuged to discard the old culture medium, washed once using DMEM medium (serum-free), and centrifuged to remove the supernatant. The cells were then re-suspended in DMEM medium (serum-free). Cell viability was then detected by Trypan blue exclusion test and to be used for plating when the cell viability was confirmed to be more than 95%. A cell suspension with a density of 1.1×10^4 viable cells/mL was prepared using DMEM medium (serum-free), and 90 μL of the cell suspension was added to a 96-well 96-well transparent flat-bottomed black-walled cell culture plate (Corning, Cat #3603) so that the cell density in the plate was 1000 viable cells/well. A control group containing no cells, no compound, and complete medium only (i.e., a culture medium control), and a control group containing no compound but cells (i.e., a cell control) were set. The cell plates were placed in a cell incubator overnight.
A 10 mM stock solution of the compounds in DMSO was first serially diluted at 3.16-fold with DMSO (Sigma, Cat #D2650) to the 9th concentration, and the 10th concentration was set as DMSO control (compound-free). Then, the DMSO solutions containing different concentrations of the compounds were diluted at 10-fold with PBS (Solarbio, Cat #P1020) so that the DMSO content in each compound solution of various concentrations was 10%. Finally, 10 μL of each of such solutions was added into corresponding cell culture plate to provide an initial compound concentration of 100 μM, with the dilution fold of adjacent concentrations being 3.16 and the DMSO content in the cell culture plate being 1%. The cell plate was placed in a cell incubator for further 120 hours.
After 120 hours, the CellTiter-Glo reagent (Promega, Cat #G7572) was thawed and the plates were equilibrated at room temperature for 30 min. 100 uL of CellTiter-Glo was added to each well of the plate, and the cells were lysed thoroughly by shaking on an orbital shaker for 5 min. The plates were placed at room temperature for 20 min to stabilize the luminescence signal, and the luminescence value of each well was scanned at full wavelength with a multifunctional microplate reader (Molecular Devices, Spectramax M3). […]

[2] = system: CT26 cells; test: Anti-tumor activity in transplantation tumor model of CT26 nude mouse; type: in vivo, BALB/c nude mice; settings: for Tumor growth inhibition rate in T cell immunodeficient nude mice: Day 9 post-dosing, 50 μg/mouse (2.5 mg/kg) intratumorally, Day 0 and Day 4; for Tumor growth inhibition in immuno-competent mice versus nude mice (in words): FIG. 2D
Description: BALB/c nude mice of 6-8 weeks (purchased from Shanghai Ling Chang Biotech Co., Ltd.) were inoculated with 5×10^5 CT26 cells (supplied by Taicang Zexin Biotechnology Co., Ltd., ATCC #CRL-2638) subcutaneously on the right back dorsal, respectively, and the inoculation volume was 0.1 mL. When tumors grew to an average volume of 100 mm^3, they were randomized according to tumor size and mouse body weight and dosed. The day of the first dose was Day 0. Two doses were administered on Day 0 and Day 4, with 50 μg of compound/mouse (i.e., 2.5 mg/kg) injected intratumorally right side, with the same volume of PBS (Hyclone, Cat #SH30258.01) as a control. The control mice were sacrificed 9 days, the ADU-S100 treated mice were sacrificed 14 days, and Example 10 treated mice were sacrificed 16 days, after dosing, respectively. During the experiment, tumor volumes and the body weights were measured 3 times per week, and the tumor volume was calculated as V=D×d×d/2 (Ibid).

[3] = system: CT26 cells; test: Anti-tumor activity in bilateral transplantation tumor model of CT26 syngeneic mouse; type: in vivo, BALB/c mice; settings: Day 0 and Day 4; for Growth inhibition rate, untreated left tumor: Day 13 post-dose, 50 μg/mouse intratumorally right side; for Inhibition of tumor growth, treated right-side tumor: Day 13 post-dosing, 50 μg/mouse (2.5 mg/kg) intratumorally right side
Description: BALB/c mice of 6-8 weeks (purchased from Shanghai Ling Chang Biotech Co., Ltd.) were inoculated with 5×10^5 CT26 cells (supplied by Taicang Zexin Biotechnology Co., Ltd., ATCC #CRL-2638) subcutaneously on the left and right back dorsal, respectively, and the inoculation volume was 0.1 mL/side. When tumors grew to an average volume of 100 mm^3, they were randomized according to tumor size and mouse body weight and dosing was initiated. The day of the first dose was Day 0.
Two doses were administered on Day 0 and Day 4, with 50 μg of compound/mouse (i.e., 2.5 mg/kg) injected intratumorally right side, with the same volume of PBS (Hyclone, Cat #SH30258.01) as a control. The tumor on the left side was not treated. The control mice were sacrificed 13 days and the treated mice were sacrificed 21 days, after dosing. During the experiment, tumor volumes on the left and right sides and the body weights were measured 3 times per week, and the tumor volume was calculated as V=D×d×d/2 (where D represents length of tumor and d represents width of tumor).

In the case of `Nc1ncnc2c1ncn2[C@@H]1O[C@@H]2COP(=O)([S-])O[C@@H]3[C@H](O)[C@@H](COP([O-])(=S)O[C@H]2[C@H]1O)O[C@H]3n1cnc2c(N)ncnc21.[Na+].[Na+]` (some centres unmarked) [ADU-S100, reference compound], the “Inhibitory potency on in vitro growth of CT26 tumor cells (in words)” value [1] is reported as “no significant tumor cell inhibitory potency”, the IC50 [1] is reported as greater than 10 µM and the “Tumor growth inhibition rate in T cell immunodeficient nude mice” value [2] is reported as 61.4%. For the same compound, the “Tumor growth inhibition in immuno-competent mice versus nude mice (in words)” value [2] was “better tumor growth inhibition in immuno-competent mice than in nude mice”, the “Growth inhibition rate, untreated left tumor” value [3] was 64.2% and the “Inhibition of tumor growth, treated right-side tumor” value [3] was 99.1%.
With `Nc1nc2c(ncn2[C@@H]2O[C@@H]3CO[P@@](=O)(S)OC4C(F)[C@H](n5cnc6c(N)nc(Cl)nc65)O[C@@H]4CO[P@@](=O)(S)OC2C3O)c(=O)[nH]1` (stereo partly drawn) [Example 10, (2′,3′)-cyclo-(Rp,Rp)-[2′-O-phosphorothioate-diester-guanosine]-[3′-O-phosphorothioate-diester-2-chloro-2′-deoxy-2′-fluoro-beta-adenosine] diammonium salt] the “Inhibitory potency on in vitro growth of CT26 tumor cells (in words)” value [1] was “particularly significant inhibitory potency”, the IC50 ([1]; Mus musculus) was less than 1 µM and the “Tumor growth inhibition rate in T cell immunodeficient nude mice” value [2] was 94.4%. For the same compound, the “Tumor growth inhibition in immuno-competent mice versus nude mice (in words)” value [2] was “better tumor growth inhibition in immuno-competent mice than in nude mice” and the “Growth inhibition rate, untreated left tumor” value [3] was 91.2%.
With `Nc1nc2c(ncn2[C@@H]2O[C@@H]3CO[P@@](=O)(S)OC4C(F)[C@H](n5cnc6c(N)nc(Cl)nc65)O[C@@H]4CO[P@@](=O)(S)OC3C2O)c(=O)[nH]1` (some centres unmarked) [Example 17, diammonium salt] the IC50 ([1]; Mus musculus) was 1 to 10 µM, the “Growth inhibition rate, untreated left tumor” value [3] was 67.4% and the “Inhibition of tumor growth, treated right-side tumor” value [3] was 99.5%.
